# Source: a melting point compilation (Tetko et al.; mined from patent text by program, amines drawn as free bases though some values may be those of a salt)
# Residues, ends and D or L forms follow the SMILES beside them. *: point of attachment. ONp = O=[N+]([O-])c1ccc(O*)cc1
row,melting point [°C],Structure (SMILES)
1,79 to 83,COc1ccc(C2=NN(C3CCN(C(=O)CCCNC(=O)OC(C)(C)C)CC3)C(=O)[C@@H]3CC=CC[C@H]23)cc1OC
2,123 to 125,Cc1ccc2cccc(OCc3c(Cl)ccc(OCCN)c3Cl)c2n1
3,101 to 103,Cn1c(C(=O)OC(C)(C)C)c(O)c2cc(OCc3ccccc3)ccc21
4,98 to 100,c1cnc2c(OCCOc3nccnc3N3CCNCC3)cccc2c1
5,110 to 113,CCCCCCCCNC(=O)CCCC(C)(C)c1ccc(O)cc1O
6,77.7,C=CCCC(C#N)(C#N)Cc1ccc(OCC=C)cc1
7,232 to 233,Oc1ncc(-c2ccccc2Cl)cn1
8,144 to 145,N=C(Nc1ccccc1-c1ccccc1)N1CCCC(O)C1 (configuration not stated)
9,117 to 121,Cc1cc(C)nc(N(N=O)c2ccccc2)n1
10,117 to 119,COc1ccc(COc2cccc(C=C(C=O)C(C=O)=Cc3cccc(OCc4ccc(OC)cc4)c3)c2)cc1
11,157 to 159,O=C1NCC[C@@H](c2ccc(Oc3ccccc3)cc2)[C@@H]1c1ccccc1 (relative stereo)
12,76 to 77,O=C1C(=O)c2ccc(F)cc2C2=C1SCC1(CCN(CC(O)Cc3ccccc3)CC1)O2 (configuration not stated)
13,83 to 84,C[C@H](O)CCC[C@H](O)CCCCCc1cccc(O)c1C(=O)O
14,109,CCN(CC)CCNC(=O)c1ccccc1NC(=O)COc1ccc(Cl)cc1
15,86 to 88,S=C1C[C@@H](SCc2ccccc2)CN1
16,188 to 192,Cc1cc(C#CC2CC2)cc(C)c1Oc1ccc([N+](=O)[O-])c(Nc2ccc(C#N)cc2)n1
17,44 to 45,OCCc1ccc(-c2ccc(F)cc2F)c(F)c1
18,89 to 91,CC1CCCC(C)N1C(=O)C=Cc1ccc(C(F)(F)F)cc1 (configuration not stated)
19,57.8,CC(C)(C)NC(=O)N1CCN(Cc2ccccc2)C[C@@H]1C(=O)N(CCCn1ccnc1)Cc1ccccc1
20,210 to 212,NC(=O)OC1CCN(C(=O)Cn2c(=O)sc3ccc(Cl)cc32)CC1
21,177 to 180,COc1cc([C@@H]2c3cc4c(cc3C=C[C@H]2C(=O)O)OCO4)cc(OC)c1OC (relative stereo)
22,150 to 153,CC(=NOCCOc1ccc(CC2SC(=O)NC2=O)cc1)c1cncc(-c2ccccc2)c1 (configuration not stated)
23,197 to 198,Cc1c(C#N)sc2nc(-c3ccc4c(c3)OCO4)nc(N3CCOCC3)c12
24,184 to 186,CCOC(=O)c1ccc(NC(=O)CC2c3ccccc3Sc3ccccc32)cc1

row,melting point [°C],Structure (SMILES)
1,147 to 149,Cc1ccc(CNC(=O)C(=O)NCCc2ccccn2)n1C
2,209 to 210,CC(C)(N)CNC(=O)CNC(=O)CNC(=O)Cc1ccccc1
3,233,O=C(C=Cc1ccc(C(F)(F)F)cc1)N1CCc2c([nH]c3ccccc23)C1c1ccc2c(c1)OCO2 (configuration not stated)
4,129 to 134,O=C1c2ccccc2C(=O)N1CCCCCCN1CCC(c2nc(-c3ccncc3)c(-c3ccc(Cl)c(Cl)c3)[nH]2)CC1
5,108 to 110,CC(C)(C)NC(=O)c1ccccc1NS(=O)(=O)C(F)(F)F
6,70 to 73,CCC(=O)NC1CCC(CNc2nc3c(s2)CCOc2ccccc2-3)CC1 (configuration not stated)
7,200 to 201,Cc1sc2nc(SCCCN3CCN(c4nc5ccccc5s4)CC3)n(N)c(=O)c2c1C
8,119 to 120,CC(C)CCCC(C)C1CCC2C3CC=C4CC(OS(C)(=O)=O)CCC4(C)C3CCC12C (configuration not stated)
9,252 to 253,CC1(C)OC(=S)Nc2ccc(-c3cncc(Br)c3)cc21
10,116 to 118,Cn1ncc(C(=O)c2ccc(Cl)cc2Cl)c1OCc1ccc([N+](=O)[O-])cc1
11,260 to 263,O=S1(=O)N=CNc2ccc(F)cc21
12,238 to 240,O=C(CCc1ccccc1[N+](=O)[O-])c1c(O)c2cccnc2n(-c2ccccc2)c1=O
13,82 to 85,O=C(O)Cc1ccccc1Oc1ccccc1
14,169 to 170,CCOP(=O)(/C=C/c1cn(-c2ccccc2)nc1OCc1ccc(OCc2nc(-c3ccco3)oc2C)c(C(=O)O)c1)OCC
15,160 to 162,CC(C)N(CCNC(=O)c1csc(NC(=O)C2=CC=CC(=Nc3ccc[nH]3)C2)n1)C(C)C
16,112,COc1ccc2ccccc2c1CONC(C)=O
17,201 to 202,Cc1cccc(C)c1NC(=O)NCC1(c2ccccc2)CCCC1
18,126 to 132,O=C1CN(C(=O)N2CCCC2)c2c(F)cccc2N1
19,235,O=C(O)c1ccc(-c2ccc(OCCCCCCO)cc2)cc1
20,119 to 120,Cc1cccnc1-n1c(S(=O)Cc2ccccc2N(C)C)nc2c1CCC2 (configuration not stated)
21,190 to 192,C=C1CC2C(CCC3(C)C2CCC3(OC(C)=O)C(C)=O)C2(C)C1=CC(=O)CC2CCl (configuration not stated)
22,31.5 to 33,CCOC(=O)c1c(C(F)(F)F)nc(C(F)(F)Cl)c(C(=O)OC)c1N(CC)CC
23,185 to 186,NC(=O)c1cc2c(cc1OCC1CCCCC1)OCCCC2=O
24,153 to 154,CC1(C)Cc2sccc2C(=O)N1

row,melting point [°C],Structure (SMILES)
1,79 to 92,Clc1ccc2c(c1)N=C(N1CCN[C@@H](Cc3ccccc3)C1)c1ccccc1N2
2,105 to 107,CSc1ccc(C(CC2CCCO2)C(=O)O)cc1 (configuration not stated)
3,103,O=[N+]([O-])c1c(Br)nn(Cc2ccccc2)c1NCc1ccccc1
4,164 to 165,Cc1ccc(N2CCN(CCCCc3ccc(C4CCC(=O)N4)cc3)CC2)cc1 (configuration not stated)
5,167 to 170,CCCN(CCN1CCN(C(=O)c2n[nH]c3ccccc23)CC1)C1CCc2c(O)cccc2C1 (configuration not stated)
6,250 to 252,CCOC(=O)c1nnc2ccc(NC(=O)OCc3ccccc3)cc2c1O
7,262,CCOC(=O)c1c(N2CCN(C(=O)c3cccs3)CC2)c2cc(F)cnc2n(CC(=O)c2ccccc2)c1=O
8,65 to 70,Oc1cc2c(cc1CCCOc1ccccc1)OC(CCc1ccccc1)C2 (configuration not stated)
9,123 to 125,CCC(OC)(c1cccc(OCc2cc3ccccc3n(C)c2=O)c1)c1nccs1 (configuration not stated)
10,82,CCCOc1ccccc1-c1nc2c(CCCCc3ccccc3)cccc2c(=O)[nH]1
11,178 to 182,COC(=O)Nc1ccc(CN2CCC(C(O)(c3ccc(OC(F)(F)F)cc3)c3ccc(OC(F)(F)F)cc3)CC2)cc1
12,67,CCCNC(=O)c1ccc(F)c2c1CC(N(CCCc1c[nH]c3ccc(F)cc13)C1CCC1)CO2 (configuration not stated)
13,92.5 to 94,CCNc1cc(Cl)c(C(F)(F)F)cc1[N+](=O)[O-]
14,73 to 74,C=CCOC(=O)c1c(C)c(OC)cc(O)c1C=O
15,173,CC(C)CC(NC(=O)C1CCCN1)C(=O)NCC(=O)Oc1ccc([N+](=O)[O-])cc1 (stereo not drawn) (H-Pro-Leu-Gly-ONp; configuration not given here)
16,249 to 250,O=C(CC(NC(=O)Cc1ccccc1)c1ccccc1)Nc1n[nH]c(=S)s1 (configuration not stated)
17,141 to 142,COc1cc(C=O)ccc1OCc1cn(-c2ccccn2)nc1C
18,86 to 88,CC(=O)c1cc(CC(C)O)c(OCCCCC#N)cc1O (configuration not stated)
19,104 to 110,CC1(C)c2ccc(C(O)CN3CCN(c4n[nH]c5ccccc45)CC3)cc2C(C)(C)C1O (configuration not stated)
20,109 to 110,CCNc1cccnc1N(CC)CC1CCN(C(=O)c2ccc[nH]2)CC1
21,103 to 104,O=c1ccn(-c2cccc(C(F)(F)F)c2)nc1-c1nncn1-c1ccccc1
22,110 to 111,COc1ccc(N2CCN(c3c(C)c(C)c4c(c3C)C(c3ccco3)C(C)(C)O4)CC2)cc1 (configuration not stated)
23,242 to 244,CC1(C)CC(=O)C2=C(C1)NC1=C(C(=O)CC(C)(C)C1)C2c1ccc(Cl)c(Oc2ccncc2)c1
24,102 to 104,CCCCc1nc(O)cc(CCl)n1

row,melting point [°C],Structure (SMILES)
1,143 to 144,Cc1oc(-c2ccccc2)nc1COc1ccc2cc(C/C=C/O)oc2c1
2,215 to 218,CCOC(=O)c1cn2c3c(c(F)c(F)cc3c1=O)CCC2CCl (configuration not stated)
3,280 to 282,O=C1NC(=O)c2c1c(-c1ccccc1)cc1c2c2cc(O)ccc2n1CCCBr
4,212 to 214,c1ccc2[nH]c(-c3ccsc3)cc2c1
5,176 to 177,CCCc1nc2c(N)nc3ccc(-c4cccc(CO)c4)cc3c2s1
6,175 to 177,Cc1nc(-c2ccccc2)nc(OCC(=O)O)c1C
7,210 to 211,CC1CC(=O)c2c(C(=O)O)c[nH]c2C1 (configuration not stated)
8,100 to 102,CCOC(=O)c1nc(-c2ccc(OC)c(OC)c2)cs1
9,306 to 307,CS(=O)(=O)c1ccc(-c2cnc3cnc(-c4ccc(O)cc4)nc3c2)cc1
10,176 to 178,CCc1cccc(-n2ncc(C(=O)O)c2C(N)=O)c1
11,164 to 168,Cc1nc(N)nc(N)c1CCC(C)c1ccc(Cl)cc1Cl (configuration not stated)
12,188 to 190,COc1cc2ncnc(NC3=CC(=O)C4(C(C)C)OC4C3=O)c2cc1OC (configuration not stated)
13,91 to 92,CCc1c(Oc2cc(C)cc(C)c2)[nH]c(=O)[nH]c1=O
14,166,O=C(O)C(Cl)=C(Cl)C(O)=NCCc1ccc([N+](=O)[O-])cc1
15,148 to 150,CC(C)(C)c1cc(-c2nn(CCN3CCCC3=O)c3ncccc23)cc(C(C)(C)C)c1O
16,203,CS(=O)(=O)Nc1ccc(C=CC(=O)N2CCc3c([nH]c4ccccc34)C2c2ccc3c(c2)OCO3)cc1 (configuration not stated)
17,161 to 163,CCOC(=O)c1cnc2c3ccccc3c(CC)cn2c1=O
18,135 to 136,COc1cc2c(cc1OC)C(C(S)(C#N)c1ccc(Cl)cc1)=NCC2 (configuration not stated)
19,132,CN1CCN(C2c3ccccc3CC2O)CC1 (configuration not stated)
20,141,Cc1ccc(CCCO)c(NCc2ccc3nc(NCCCN4CCOCC4)n(Cc4cccc(Br)n4)c3c2)c1
21,120 to 122,N#CC=C1CCN(c2ccc(N3C[C@@H](Cn4cc(CCC(=O)O)nn4)OC3=O)cc2)CC1
22,238 to 242,Nc1ncnc2c1ncn2Cc1oc2ccc(Br)cc2c(=O)c1-c1ccc(F)cc1
23,86 to 88,COC(=O)c1cc2ccoc2s1

row,Structure (SMILES),melting point [°C]
1,CCOc1cc2c(C[C@H](C)N)c3n(c2cc1F)CCC3,107
2,CC(C)CCN1C(=O)C(NC(=O)Oc2cccc(N(C)C)c2)C(=O)N(c2ccccc2)c2ccc(Cl)cc21 (configuration not stated),199 to 200
